# According to US11040053B2, “Compositions and methods for activating “stimulator of interferon gene”13 dependent signalling” (CHINOOK THERAPEUTICS, INC., priority 2015, dated 2021):
# pEC50, pKd: −log10 of the molar value.
# What was measured:
# hSTING(WT) = hSTING(WT) (Homo sapiens, UniProt Q86WV6, H232R); assay: Differential scanning fluorometry (DSF) binding to purified hSTING WT; design: DNA encoding amino acids 140-379 (amino acid numbering corresponding to Swiss Prot Q86WV6); 6xHIS (N, cleaved yes); SUMO (N, cleaved yes); made in house; host or cells: Rosetta2 (DE3) E. coli; conditions: DSF, 1 mg/ml STING AA140-379, ligand 1 mM
# Description: (§1) Cells were grown in lysogeny broth at 37° C. until a […] absorbance of 0.6 was reached. […] Cell pellets were re-suspended on ice in a buffer containing 50 mM Tris hydrochloride (Tris-HCl) pH 7.5, 500 mM sodium chloride (NaCl), 20 mM imidazole, 10% glycerol, 1 mM tris(2-carboxyethyl)phosphine hydrochloride (TCEP) and protease inhibitor tablet (Pierce) (Buffer A). Cells were lysed using an S-450D sonifier (Emmerson industrial) on ice. […] Protein was aliquoted, flash frozen in liquid nitrogen and stored at −80° C. until use.
# (§2) The protein is heated in the presence of a dye that binds to and fluoresces in hydrophobic environments. The protein is thermally denatured by heating resulting in increased dye binding to the unfolded protein and fluorescence. The temperature midpoint (Tm) of a proteins denaturation is established by calculating the half maximal value of the denaturation curve. The temperature midpoint of the protein in the presence of a ligand is directly related to the affinity of the ligand for the protein and therefore its ability to stabilize the protein at higher temperatures.
# (§3) Samples were placed in hard shell PCR plate (Bio-Rad). The fluorescence as a function of temperature was recorded in a CFX 96 real time PCR machine (Bio-Rad) reading on the HEX channel, excitation 450-490, emission 560-580 nm. The temperature gradient was from 15-80° C. ramping 0.5° C. per 15 seconds and recording every 0.5° C. After subtraction of the background signal from a sample lacking protein and ligand. The midpoint temperature (Tm) was calculated by fitting the curves of the fluorescence as a function of temperature to a Boltzmann sigmoidal function (Graph Pad Prism).
# HAQ allele hSTING = target: T1, HAQ allele hSTING (Homo sapiens, UniProt Q86WV6, G230A/H232R/R293Q); assay: Differential scanning fluorometry (DSF) binding to purified hSTING HAQ allele; conditions: DSF, 1 mg/ml STING AA140-379, ligand 1 mM
# T1 construct: DNA encoding amino acids 140-379 (amino acid numbering corresponding to Swiss Prot Q86WV6); 6xHIS (N, cleaved yes); SUMO (N, cleaved yes); made in house; host or cells: Rosetta2 (DE3) E. coli
# Description: as §1, §2, §3
# hSTING(REF) = hSTING(REF) (Homo sapiens, UniProt Q86WV6); assay: Differential scanning fluorometry (DSF) binding to purified hSTING REF allele; design: DNA encoding amino acids 140-379 (amino acid numbering corresponding to Swiss Prot Q86WV6); 6xHIS (N, cleaved yes); SUMO (N, cleaved yes); made in house; host or cells: Rosetta2 (DE3) E. coli; conditions: DSF, 1 mg/ml STING AA140-379, ligand 1 mM
# Description: as §1, §2, §3
# [1] = target: T2, human-STING(E149-S379)H232R protein (Homo sapiens, UniProt Q86WV6, H232R); assay: Surface Plasmon Resonance binding to hSTING WT; conditions: Biacore T200, 15° C., steady-state analysis
# T2 construct: His6 (C); made in house; host or cells: E. coli
# Description: Binding of the mono- and di-F CDN compounds was assessed using Surface Plasmon Resononce to determine a binding constant. An E. coli expression construct (human-STING[E149-S379]H232R) was prepared harboring the protein sequence:
# Aliquots were prepared and stored at −80° C. in 30 mM Tris pH 7.5/100 mM NaCl/10% glycerol.
# N-terminal avi-tagged human-STING(E149-S379)H232R protein was immobilized (2500 RUs) on a streptavidin chip at 15° C. in a Biacore T200 (GE Healthcare). Titrations of cyclic dinucleotides (CDNs as indicated in Table 6) in 30 mM Tris pH 7.5/50 mM NaCL/0.005% Tween 20/1 mM DTT/2% DMSO, were profiled (30 μLs/min, 180 seconds for sample contact/120 seconds for dissociation) against hSTING at 15° C. Kinetic analysis of the data was performed using Biacore T200 Evaluation software. Steady-state analysis of the data was performed using Graphpad Prism 6.0 software, using one site-specific binding algorithm (Equation is Y=Bmax*X/(Kd+X)).
# hSTING HAQ allele = target: T3, hSTING HAQ allele (Homo sapiens, UniProt Q86WV6, G230A/H232R/R293Q/R71H); assay: IRF-3 inducible secreted luciferase reporter in THP1-Dual cells without digitonin; assay type: cell-based; conditions: for activity relative to OH reference compound, in words: Table 5 comment, THP1 cells without digitonin; for pEC50: without digitonin in THP1 cells (HAQ allele)
# T3 construct: a human monocyte cell line containing the hSTING HAQ allele; host or cells: THP1-Dual cells
# Description: After 30 minutes, cells were washed and fresh RPMI media containing 10% FBS was added, and cells were incubated at 37° C. with 5% CO2 Cell culture supernatants from each sample were collected after overnight incubation, and 10 μL of the cell culture supernatants was added to 50 μL QUANTI-Luc reagent (Invivogen). Type I interferon activation was determined by measuring secreted luciferase levels on a SpectraMax M3 spectrophotometer (Molecular Devices). The EC50 value was determined from the dose-response curve for the 10 concentrations from the serial dilution of the reference compounds and compounds of the invention tested in this assay as listed in Table 5.
# T1 sequence (Q86WV6 140-379 G230A/H232R/R293Q limits assumed): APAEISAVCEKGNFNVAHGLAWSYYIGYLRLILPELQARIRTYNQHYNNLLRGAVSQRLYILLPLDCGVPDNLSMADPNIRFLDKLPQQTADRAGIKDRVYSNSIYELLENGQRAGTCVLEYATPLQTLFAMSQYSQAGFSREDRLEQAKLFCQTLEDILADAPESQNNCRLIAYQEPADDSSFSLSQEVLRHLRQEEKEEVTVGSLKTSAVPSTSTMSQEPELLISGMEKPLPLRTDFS
# T2 sequence (Q86WV6 with tags, fused parts or gaps H232R): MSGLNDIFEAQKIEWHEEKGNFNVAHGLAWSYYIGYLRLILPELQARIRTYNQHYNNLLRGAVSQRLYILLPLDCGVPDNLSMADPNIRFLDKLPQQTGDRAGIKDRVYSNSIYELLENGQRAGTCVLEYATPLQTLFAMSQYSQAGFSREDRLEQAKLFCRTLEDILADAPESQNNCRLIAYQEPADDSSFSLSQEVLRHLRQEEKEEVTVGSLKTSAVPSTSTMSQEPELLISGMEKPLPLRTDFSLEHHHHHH
# hSTING(WT), sequence (Q86WV6 140-379 H232R): as the sequence (Q86WV6 140-379 G230A/H232R/R293Q limits assumed) above, with A91G, Q154R counted along it
# T3 sequence (Q86WV6 whole entry R71H/G230A/H232R/R293Q): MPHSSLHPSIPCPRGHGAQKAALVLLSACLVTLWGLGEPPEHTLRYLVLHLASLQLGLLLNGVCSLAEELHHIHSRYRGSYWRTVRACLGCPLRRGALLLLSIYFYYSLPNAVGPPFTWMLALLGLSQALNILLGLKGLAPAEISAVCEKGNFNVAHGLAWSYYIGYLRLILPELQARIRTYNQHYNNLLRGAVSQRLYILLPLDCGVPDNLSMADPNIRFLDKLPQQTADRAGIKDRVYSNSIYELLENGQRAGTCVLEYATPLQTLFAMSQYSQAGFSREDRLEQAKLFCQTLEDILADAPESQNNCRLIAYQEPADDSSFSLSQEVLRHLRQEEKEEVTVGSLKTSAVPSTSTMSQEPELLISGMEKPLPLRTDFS
# hSTING(REF), sequence (Q86WV6 140-379): as the sequence (Q86WV6 140-379 G230A/H232R/R293Q limits assumed) above, with A91G, R93H, Q154R counted along it
SMILES,hSTING Tm Shift WT (hSTING(WT)),hSTING Tm Shift HAQ (HAQ allele hSTING),hSTING Tm Shift REF (hSTING(REF)),pKd [1],"activity relative to OH reference compound, in words (hSTING HAQ allele)",pEC50 (hSTING HAQ allele)
"Nc1ncnc2c1ncn2[C@@H]1O[C@@H]2CO[P@@](=O)(S)O[C@H]3[C@@H](F)[C@H](n4cnc5c(N)ncnc54)O[C@@H]3CO[P@](=O)(S)O[C@H]2[C@H]1F [Compound 6a, (2R,3R,3aR,5R,7aR,9R,10R,10aR,12S,14aR)-2,9-bis(6-amino-9H-purin-9-yl)-3,10-difluoro-5,12-dimercaptooctahydro-2H,7H-difuro [3,2-d:3′,2′-j][1,3,7,9]tetraoxa[2,8]diphosphacyclododecine 5,12-dioxide]",–,–,–,7.54,improved activity,5.10
"Nc1nc2c(ncn2[C@@H]2O[C@@H]3CO[P@@](=O)(S)O[C@H]4[C@@H](F)[C@H](n5cnc6c(N)ncnc65)O[C@@H]4CO[P@@](=O)(S)O[C@H]3[C@H]2F)c(=O)[nH]1 [Compound 14, 2-Amino-9-((2R,3R,3aR,5R,7aR,9R,10R,10aR,12R,14aR)-9-(6-amino-9H-purin-9-yl)-3,10-difluoro-5,12-dimercapto-5,12-dioxidooctahydro-2H,7H-difuro [3,2-d:3′,2′-j][1,3,7,9]tetraoxa[2,8]diphosphacyclododecin-2-yl)-1,9-dihydro-6H-purin-6-one]",19.3 °C,34.2 °C,12.5 °C,7.03,–,5.52
"Nc1nc2c(ncn2[C@@H]2O[C@@H]3CO[P@](=O)(S)O[C@H]4[C@@H](F)[C@H](n5cnc6c(N)ncnc65)O[C@@H]4CO[P@@](=O)(S)O[C@H]3[C@H]2O)c(=O)[nH]1 [Compound 24a, 2-amino-9-((2R,3R,3aS,5R,7aR,9R,10R,10aR,12S,14aR)-9-(6-amino-9H-purin-9-yl)-10-fluoro-3-hydroxy-5,12-dimercapto-5,12-dioxidooctahydro-2H,7H-difuro[3,2-d:3′,2′-j][1,3,7,9]tetraoxa[2,8]diphosphacyclododecin-2-yl)-1,9-dihydro-6H-purin-6-one]",9.3 °C,15.3 °C,7.0 °C,6.16,–,4.05

# Other lines, results leading:
hSTING Tm Shift WT (hSTING(WT)),hSTING Tm Shift HAQ (HAQ allele hSTING),hSTING Tm Shift REF (hSTING(REF)),pKd [1],"activity relative to OH reference compound, in words (hSTING HAQ allele)",pEC50 (hSTING HAQ allele),SMILES
12.6 °C,20.6 °C,6.4 °C,7.96,–,–,"Nc1ncnc2c1ncn2[C@@H]1O[C@@H]2COP(=O)(O)O[C@H]3[C@@H](F)[C@H](n4cnc5c(N)ncnc54)O[C@@H]3COP(=O)(O)O[C@H]2[C@H]1F [3'3'-(2'F-A)(2'F-A), reference compound]"
–,–,–,7.01,improved activity,4.74,"Nc1nc2c(ncn2[C@@H]2O[C@@H]3CO[P@](=O)(S)O[C@H]4[C@@H](F)[C@H](n5cnc6c(N)ncnc65)O[C@@H]4CO[P@@](=O)(S)O[C@H]3[C@H]2F)c(=O)[nH]1 [Compound 14a, 2-amino-9-((2R,3R,3aR,5R,7aR,9R,10R,10aR,12S,14aR)-9-(6-amino-9H-purin-9-yl)-3,10-difluoro-5,12-dimercapto-5,12-dioxidooctahydro-2H,7H-difuro [3,2-d:3′,2′-j][1,3,7,9]tetraoxa[2,8]diphosphacyclododecin-2-yl)-1,9-dihydro-6H-purin-6-one]"
